Measurements from US20050180971A1, “Cancer therapy” (priority 2002, published 2005).
Several values for one entry are separate records, joined by “and”; a condition that tells them apart may be missing. Equal entries are not always repeated.

Test system: AE 17 cells
Experiment: Murine mesothelioma model: subcutaneous AE 17 tumor challenge, tumor area by callipers
Type: in vivo, C57/B16 mice
Source text: Malignant mesothelioma in humans is an asbestos induced, incurable tumor that has a particularly poor prognosis. Average time from diagnosis to death being only eight months (Musk and Woodward, 1982). A murine model was developed by researchers in the Department of Medicine at the University of Western Australia to further the development of suitable interventions (Davies et al., 1992).
Day 0 was defined as the day of tumor cell inoculation with 1×10^6 AE 17 cells subcutaneously. The AE 17 tumor cell line was derived from C57/B16 mice and inoculated back into the same strain. This point will be referred to as a tumor challenge henceforth. Three groups of 5 mice were all challenged in this way. Subsequently the first of the groups was given a single ip dose of vinblastine (Vb) at 6 mg/kg body weight exactly 14 days post tumor challenge (Vb 19/11/01 group). The second group of 5 mice were similarly treated the next day; 15 days post tumor challenge (Vb 20/11/01). The third group received no Vb treatment (No treatment/control group).
Tumor measurements were taken from Day 14 onwards with callipers (2 diameters at right angles to each other in mm's). These two diameters are then multiplied together to give a mm^2 value that is known from past experience to correlate well with both tumor volume and tumor mass.

[1] = single ip Vb 6 mg/kg on day 14 post tumor challenge, measured day 14 (19-Nov)
[2] = single ip Vb 6 mg/kg on day 14 post tumor challenge, measured day 15 (20-Nov)
[3] = single ip Vb 6 mg/kg on day 14 post tumor challenge, measured day 18 (23-Nov)
[4] = single ip Vb 6 mg/kg on day 14 post tumor challenge, measured day 21 (26-Nov)
[5] = single ip Vb 6 mg/kg on day 14 post tumor challenge, measured day 24 (29-Nov)
[6] = single ip Vb 6 mg/kg on day 14 post tumor challenge, measured day 25 (30-Nov)
[7] = single ip Vb 6 mg/kg on day 14 post tumor challenge, measured day 28 (3-Dec)
[8] = single ip Vb 6 mg/kg on day 14 post tumor challenge, measured day 30 (5-Dec)
[9] = single ip Vb 6 mg/kg on day 15 post tumor challenge, measured day 14 (19-Nov), before treatment
[10] = single ip Vb 6 mg/kg on day 15 post tumor challenge, measured day 15 (20-Nov)
[11] = single ip Vb 6 mg/kg on day 15 post tumor challenge, measured day 18 (23-Nov)
[12] = single ip Vb 6 mg/kg on day 15 post tumor challenge, measured day 21 (26-Nov)
[13] = single ip Vb 6 mg/kg on day 15 post tumor challenge, measured day 24 (29-Nov)
[14] = single ip Vb 6 mg/kg on day 15 post tumor challenge, measured day 25 (30-Nov)
[15] = single ip Vb 6 mg/kg on day 15 post tumor challenge, measured day 28 (3-Dec)
[16] = single ip Vb 6 mg/kg on day 15 post tumor challenge, measured day 30 (5-Dec)

## CC[C@]1(O)C[C@@H]2CN(CCc3c([nH]c4ccccc34)[C@@](C(=O)OC)(c3cc4c(cc3OC)N(C)[C@H]3[C@@](O)(C(=O)OC)[C@H](OC(C)=O)[C@]5(CC)C=CCN6CC[C@]43[C@@H]65)C2)C1 [Vb, vinblastine]
Vb treatment day 15 post challenge
  mice with significant tumor development: 4/5
Single Vb treatment day 14 post challenge
  protection from tumor development: heavily protected from tumor development
Single Vb treatment day 14 post challenge, 5 mice
  effectiveness: 80%
Single ip Vb 6 mg/kg on day 14 post tumor challenge, measured (7-Dec)
  Tumor area (2 diameters multiplied), individual animal: 0 mm^2 (4×) and 70 mm^2
[1]
  Tumor area (2 diameters multiplied), individual animal: 4 mm^2 (4×) and 0.5 mm^2
  Tumor area, group mean: 3.3 mm^2
[2]
  Tumor area (2 diameters multiplied), individual animal: 0.5 mm^2 (3×) and 0 mm^2 (2×)
  Tumor area, group mean: 0.3 mm^2
[3]
  Tumor area (2 diameters multiplied), individual animal: 0 mm^2 (2×) and 2 mm^2 and 1 mm^2 and 0.5 mm^2
  Tumor area, group mean: 0.7 mm^2
[4]
  Tumor area (2 diameters multiplied), individual animal: 0.5 mm^2 (2×) and 1 mm^2 and 0 mm^2 (2×)
  Tumor area, group mean: 0.4 mm^2
[5]
  Tumor area (2 diameters multiplied), individual animal: 0 mm^2 (3×) and 6 mm^2 and 4 mm^2
  Tumor area, group mean: 2 mm^2
[6]
  Tumor area (2 diameters multiplied), individual animal: 0 mm^2 (3×) and 1 mm^2 and 0.5 mm^2
  Tumor area, group mean: 0.3 mm^2
[7]
  Tumor area (2 diameters multiplied), individual animal: 0 mm^2 (3×) and 0.5 mm^2 and 40 mm^2
  Tumor area, group mean: 8.1 mm^2
[8]
  Tumor area (2 diameters multiplied), individual animal: 0 mm^2 (4×) and 70 mm^2
  Tumor area, group mean: 14 mm^2
Single ip Vb 6 mg/kg on day 14 post tumor challenge, measured day 32 (7-Dec)
  Tumor area, group mean: 14 mm^2
Single ip Vb 6 mg/kg on day 15 post tumor challenge, measured (7-Dec)
  Tumor area (2 diameters multiplied), individual animal: 81 mm^2 and 0.5 mm^2 and 90 mm^2 (2×)
[9]
  Tumor area (2 diameters multiplied), individual animal: 0.5 mm^2 (3×) and 4 mm^2 and 9 mm^2
  Tumor area, group mean: 2.9 mm^2
[10]
  Tumor area (2 diameters multiplied), individual animal: 1 mm^2 and 0.5 mm^2 (3×) and 0 mm^2
  Tumor area, group mean: 0.5 mm^2
[11]
  Tumor area (2 diameters multiplied), individual animal: 4 mm^2 and 0.5 mm^2 (2×) and 0 mm^2 (2×)
  Tumor area, group mean: 1 mm^2
[12]
  Tumor area (2 diameters multiplied), individual animal: 9 mm^2 and 0.5 mm^2 (3×) and 8 mm^2
  Tumor area, group mean: 3.7 mm^2
[13]
  Tumor area (2 diameters multiplied), individual animal: 16 mm^2 and 0.5 mm^2 and 25 mm^2 and 12 mm^2
  Tumor area, group mean: 13.4 mm^2
[14]
  Tumor area (2 diameters multiplied), individual animal: 20 mm^2 and 0.5 mm^2 and 30 mm^2 and 25 mm^2
  Tumor area, group mean: 18.9 mm^2
[15]
  Tumor area (2 diameters multiplied), individual animal: 42 mm^2 and 0.5 mm^2 and 56 mm^2 and 90 mm^2
  Tumor area, group mean: 47.1 mm^2
[16]
  Tumor area (2 diameters multiplied), individual animal: 56 mm^2 and 0.5 mm^2 and 90 mm^2 (2×)
  Tumor area, group mean: 59.1 mm^2
Single ip Vb 6 mg/kg on day 15 post tumor challenge, measured day 32 (7-Dec)
  Tumor area, group mean: 65.4 mm^2
